The text below walks through data of paper PMC6469168, “Localization of ^99mTc-GRP Analogs in GRPR-Expressing Tumors: Effects of Peptide Length and Neprilysin Inhibition on Biological Responses” (Pharmaceuticals, 2019).

Like-named read-outs stand apart in the source and are kept apart here. Where no end group is shown, it is not given here. The star is where a group is joined. DOTA = O=C(O)CN1CCN(CC(=O)O)CCN(CC(=O)*)CCN(CC(=O)O)CC1; N4 = tetraamine chelator for 99mTc

The target in test [1] is T1, GRPR-sites on PC-3 cell membranes (Homo sapiens, UniProt P30550).
T1 construct: PC-3 cells endogenously expressing the human GRPR; host or cells: PC-3 cell-membrane homogenates
Briefly: Competition binding against [^125I-Tyr^4]BBN in PC-3 cell membranes. The conditions noted are these: 1 h at 22 °C, 50 pM radioligand, triplicates per concentration, read-out: IC50, [^125I-Tyr^4]BBN displacement from GRPR-sites. Here is the method: Moreover, coupling of the positively charged acyclic tetraamine unit in the N-terminus of parent GRP(14/18–27) references improved the affinity of resulting analogs to the GRPR, as previously reported for similarly modified peptide analogs.
(b) GRPR-specific internalization of ^99mTc-N4-GRP(14–27) (red solid line) and ^99mTc-N4-GRP(18–27) (blue solid line) in PC-3 cells during incubation at 37 °C at 15, 30, 60, and 120 min. Results represent average of cell internalized activity ± sd, n = 3; data is corrected for nonspecific internalization in the presence of 1 µM [Tyr^4]BBN.
Competition binding experiments against [^125I-Tyr^4] […] For the assay, triplicates per concentration point (concentration range: 10^−13–10^−6 M) of each test peptide were incubated together with the radioligand (~40,000 cpm per assay tube at a 50 pM concentration) in PC-3 cell-membrane homogenates in a total volume of 300 μL binding buffer (BB, 50 mM HEPES pH 7.4, 1% BSA, 5.5 mM MgCl2, 35 μM bacitracin) for 1 h at 22 °C in an Incubator-Orbital Shaker (MPM Instr. SrI, Bernareggio, Italy). Binding was interrupted by ice-cold washing buffer (WB, 10 mM HEPES pH 7.4, 150 mM NaCl) and rapid filtration (Whatman GF/B filters presoaked in BB) on a Brandel Cell Harvester (Adi Hassel Ing. Büro, Munich, Germany). Filters were washed with ice-cold WB and counted in an automatic well-type gamma counter (NaI(Tl) 3′-crystal, Cobra Packard Auto-Gamma 5000 series instrument). The IC50 values were calculated using nonlinear regression according to a one-site model applying the PRISM 2 program (Graph Pad Software, San Diego, CA, USA).

For test [2], the target named is T2, BB3R in human lung (bronchial) carcinoids (Homo sapiens, UniProt P32247).
T2 construct: from tissue; host or cells: human bronchial carcinoid cryostat sections
T2 sequence (P32247 1-399): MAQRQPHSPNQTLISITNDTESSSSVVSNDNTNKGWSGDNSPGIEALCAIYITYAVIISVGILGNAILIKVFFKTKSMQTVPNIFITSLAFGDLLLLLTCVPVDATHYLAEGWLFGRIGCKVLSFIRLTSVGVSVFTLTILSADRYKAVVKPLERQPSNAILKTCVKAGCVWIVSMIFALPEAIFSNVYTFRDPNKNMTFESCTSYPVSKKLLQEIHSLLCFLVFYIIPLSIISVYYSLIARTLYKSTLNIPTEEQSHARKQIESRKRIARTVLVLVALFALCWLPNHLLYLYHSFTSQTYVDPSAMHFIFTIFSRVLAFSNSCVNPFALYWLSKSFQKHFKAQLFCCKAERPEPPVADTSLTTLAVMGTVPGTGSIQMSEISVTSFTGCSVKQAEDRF
Briefly: Receptor autoradiography competition binding vs ^125I-[DTyr^6,βAla^11,Phe^13,Nle^14]BBN(6–14) in human tumor sections. The conditions noted are these: human lung (bronchial) carcinoid sections, same universal radioligand, mean ± SEM, n in parentheses, read-out: IC50s in nM, BB3R.
Description: IC50 values are given in nM ± SEM.

Test [3] has as its system GRPR. Conditions: DOTA-derivatized analogs; read-out: IC50, GRPR binding affinity; cited from earlier work. An excerpt:
It is interesting to note that the presence of the positively charged N4^+x-moiety at positions 13 and 17 of the native GRP chain occupy the two basic amino acids Lys^13 and Arg^17.

Test [4] addresses T3, GRPR expressed in human prostate cancer (Homo sapiens, UniProt P30550).
T3 construct: from tissue; host or cells: human prostate carcinoma cryostat sections
Conditions: receptor autoradiography, human prostate cancer sections; mean, n = 2; read-out: IC50s in nM, GRPR; cited from earlier work. An excerpt:
Table 1 Affinities for the three human bombesin receptor subtypes. | column: IC50s in nM / GRPR ^1 || The selective affinities of N4-GRP(14–27) for each of the three bombesin receptor subtypes found in mammals were studied during in vitro competition binding assays against the universal radioligand ^125I-[DTyr^6,βAla^11,Phe^13,Nle^14]BBN(6–14). Receptor autoradiography was applied in cryostat sections of well characterized human cancers, preferentially expressing one of the subtypes.

Test [5] addresses T2, BB3R in human lung (bronchial) carcinoids. The conditions noted are these: receptor autoradiography, human lung carcinoid sections; read-out: IC50s in nM, BB3R; cited from earlier work. An excerpt:
Receptor autoradiography was applied in cryostat sections of well characterized human cancers, preferentially expressing one of the subtypes.

Test [6] addresses T4, NMBR in human ileal carcinoids (Homo sapiens, UniProt P28336).
T4 construct: from tissue; host or cells: human ileal carcinoid cryostat sections
The conditions noted are these: receptor autoradiography, human ileal carcinoid sections; mean, n = 2; read-out: IC50s in nM, NMBR; cited from earlier work. An excerpt: Table 1 Affinities for the three human bombesin receptor subtypes. | column: IC50s in nM / NMBR ^2 || The selective affinities of N4-GRP(14–27) for each of the three bombesin receptor subtypes found in mammals were studied during in vitro competition binding assays against the universal radioligand ^125I-[DTyr^6,βAla^11,Phe^13,Nle^14]BBN(6–14). Receptor autoradiography was applied in cryostat sections of well characterized human cancers, preferentially expressing one of the subtypes.

Test [7] deals with PC-3 cells. Briefly: Internalization assay in PC-3 cells. The format is cell-based, human. The conditions noted are these: 37 °C, corrected for nonspecific (1 µM [Tyr^4]BBN), average ± sd, n = 3. Here is the method:
In both cases the bulk of cell-associated radioactivity was found in the cells with ^99mTc-N4-GRP(14–27) internalizing much faster in PC-3 cells compared to ^99mTc-N4-GRP(18–27) at all time intervals (Figure 3b).
The internalization rates of ^99mTc-N4-GRP(14–27) and ^99mTc-N4-GRP(18–27) were compared in PC-3 cells. Briefly, PC-3 cells were seeded in six-well plates (~1 × 10^6 cells per well) 24 h before the experiment. Approximately 50,000 cpm of either ^99mTc-N4-GRP(14–27) or ^99mTc-N4-GRP(18–27) (corresponding to 250 fmol total peptide in 150 μL of 0.5% BSA/PBS) was added alone (total) or in the presence of 1 μM [Tyr^4]BBN (nonspecific). Cells were incubated at 37 °C for 15, 30, 60, and 120 min and incubation was interrupted each time by placing the plates on ice, removing the supernatants and rapid rinsing with ice-cold 0.5% BSA/PBS. Cells were then treated 2 × 5 min with acid wash buffer (2 × 0.6 mL, 50 mM glycine buffer pH 2.8, 0.1 M NaCl) at room temperature and supernatants were collected (membrane-bound fraction). After rinsing with 1 mL chilled 0.5% BSA/PBS, cells were lysed by treatment with 1 N NaOH (2 × 0.6 mL) and lysates were collected (internalized fraction). Sample radioactivity was measured in the γ-counter and percent internalized radioactivity was determined vs. total added activity. Results represent the average values ± sd of three experiments performed in triplicate.

T1 sequence (P30550 whole entry): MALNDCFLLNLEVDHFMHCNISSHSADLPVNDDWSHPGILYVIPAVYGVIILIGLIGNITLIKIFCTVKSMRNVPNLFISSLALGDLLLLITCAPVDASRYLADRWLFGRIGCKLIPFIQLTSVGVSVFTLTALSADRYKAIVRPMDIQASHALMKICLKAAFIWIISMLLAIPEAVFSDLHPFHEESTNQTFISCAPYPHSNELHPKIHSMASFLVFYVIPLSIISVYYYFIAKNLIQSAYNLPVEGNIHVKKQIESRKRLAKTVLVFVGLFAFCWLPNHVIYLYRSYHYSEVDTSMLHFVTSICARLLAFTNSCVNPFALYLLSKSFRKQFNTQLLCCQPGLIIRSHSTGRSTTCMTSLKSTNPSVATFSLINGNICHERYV
T3 sequence (P30550 whole entry): as above
T4 sequence (P28336 whole entry): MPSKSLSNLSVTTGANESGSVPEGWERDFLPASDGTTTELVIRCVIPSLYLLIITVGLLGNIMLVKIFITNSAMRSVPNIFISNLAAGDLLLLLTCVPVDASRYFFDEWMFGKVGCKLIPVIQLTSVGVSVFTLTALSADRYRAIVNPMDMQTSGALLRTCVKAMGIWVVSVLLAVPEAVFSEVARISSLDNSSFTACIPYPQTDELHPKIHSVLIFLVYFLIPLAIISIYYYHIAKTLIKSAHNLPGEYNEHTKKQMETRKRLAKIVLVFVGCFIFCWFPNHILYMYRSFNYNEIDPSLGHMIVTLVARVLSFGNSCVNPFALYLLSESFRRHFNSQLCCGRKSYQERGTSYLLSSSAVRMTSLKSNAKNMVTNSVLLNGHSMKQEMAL

Turning to `CSCC[C@H](NC(=O)[C@H](CC(C)C)NC(=O)[C@H](Cc1c[nH]cn1)NC(=O)CNC(=O)[C@@H](NC(=O)[C@H](C)NC(=O)[C@H](Cc1c[nH]c2ccccc12)NC(=O)[C@H](Cc1c[nH]cn1)NC(=O)[C@H](CC(N)=O)NC(=O)CNC(=O)[C@H](CCCNC(=N)N)NC(=O)[C@@H]1CCCN1C(=O)[C@H](Cc1ccc(O)cc1)NC(=O)[C@@H](N)CCSC)C(C)C)C(N)=O` [GRP(14–27)], in test [1], the IC50 came out at 0.45 ± 0.02 nM.
With `CSCC[C@H](NC(=O)[C@H](CC(C)C)NC(=O)[C@H](Cc1cnc[nH]1)NC(=O)CNC(=O)[C@@H](NC(=O)[C@H](C)NC(=O)[C@H](Cc1c[nH]c2ccccc12)NC(=O)[C@H](Cc1cnc[nH]1)NC(=O)[C@H](CC(N)=O)NC(=O)CN)C(C)C)C(N)=O` [GRP(18–27), H-Gly-Asn-His-Trp-Ala- Val-Gly-His-Leu-Met-NH2], in test [1], the IC50 amounted to 1.66 ± 0.2 nM.
As for `CSCC[C@H](NC(=O)[C@H](CC(C)C)NC(=O)[C@H](Cc1c[nH]cn1)NC(=O)CNC(=O)[C@@H](NC(=O)[C@H](C)NC(=O)[C@H](Cc1c[nH]c2ccccc12)NC(=O)[C@H](Cc1c[nH]cn1)NC(=O)[C@H](CC(N)=O)NC(=O)CNC(=O)[C@H](CCCNC(=N)N)NC(=O)[C@@H]1CCCN1C(=O)[C@H](Cc1ccc(O)cc1)NC(=O)[C@H](CCSC)NC(=O)C(CNCCN)CNCCN)C(C)C)C(N)=O` [N4-GRP(14–27)], the IC50 is greater than 1000 nM in test [2] and 0.32 ± 0.03 nM in test [1].
In the case of `CSCC[C@H](NC(=O)[C@H](CC(C)C)NC(=O)[C@H](Cc1c[nH]cn1)NC(=O)CNC(=O)[C@@H](NC(=O)[C@H](C)NC(=O)[C@H](Cc1c[nH]c2ccccc12)NC(=O)[C@H](Cc1c[nH]cn1)NC(=O)[C@H](CC(N)=O)NC(=O)CNC(=O)C(CNCCN)CNCCN)C(C)C)C(N)=O` [N4-GRP(18–27)], the IC50 in test [1] is 0.63 ± 0.06 nM.
For the compound “DOTA-GRP(14–27): GRP(14–27) coupled to DOTA, previously reported ({DOTA}-MYPRGNHWAVGHLM-NH2; ends and bridges not checked; UniProt P07492 37-50, looked up, fragment)”, the IC50 in test [3] was 6.6 ± 0.9 nM.
With “DOTA-GRP(18–27): GRP(18–27) coupled to DOTA, previously reported”, the IC50 in test [3] is 112 ± 16 nM.
Regarding “N4-[Pro^1,Tyr^4]BBN (PQRYGNQWAVGHLM) [Demobesin 3, tetraamine derivatized BBN-like analog]”, the IC50 in test [4] is 0.5 nM; in test [5], greater than 100 nM.
In the case of “N4-[Pro^1,Tyr^4]BBN (PQRYGNQWAVGHLM; not fully specified (N-terminus); ends and bridges not checked) [Demobesin 3, tetraamine derivatized BBN-like analog]”, the IC50 in test [6] was 1.6 nM.
For “^99mTc-N4-GRP(14–27): ^99mTc-labeled N4-GRP(14–27) radioligand (N4-MYPRGNHWAVGHLM-NH2; ends and bridges not checked; also: 99mTc complex at N4; UniProt P07492 37-50, looked up, fragment)”, the figures for the “specifically internalized, % of total added activity” value in test [7] (1 h) and in test [7] (2 h) were 12.7 ± 0.7% and 19.5 ± 1.4%, respectively.
Turning to “^99mTc-N4-GRP(18–27): ^99mTc-labeled N4-GRP(18–27) radioligand (N4-GNHWAVGHLM-NH2; ends and bridges not checked; also: 99mTc complex at N4; UniProt P07492 41-50, looked up, fragment)”, the “specifically internalized, % of total added activity” value in test [7] (1 h) was determined as 5.0 ± 0.3%; in test [7] (2 h) it was 6.9 ± 1.5%.
